The supplement of paper PMC10307832

Experiments:
Assay in all cases: relative viability (nuclei count vs DMSO), 5 days (fraction); higher = more cells survive
[1] = system: NCI-H1651
Summary of the method: (§1)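 Medians of duplicate plates are given as relative viability. That measure is the nuclei count in treated wells divided by the count in vehicle wells. Counts were taken on 4× images of lung cancer cell lines in 1536-well plates, 5 days after pin-tool dosing the day after seeding with one drug alone or a fixed anchor-drug dose plus five library-drug doses (not always all listed) in √10 steps.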

[2] = system: NCI-H838
Summary of the method: as §1

[3] = system: NCI-H661
Summary of the method: as §1

[4] = system: NCI-H1944
Summary of the method: as §1

[5] = system: NCI-H358
Summary of the method: as §1

[6] = system: NCI-H2087
Summary of the method: as §1

[7] = system: PC-3 [JPC-3]
Summary of the method: as §1

[8] = system: NCI-H2342
Summary of the method: as §1

[9] = system: NCI-H596
Summary of the method: as §1

[10] = system: LU99A
Summary of the method: as §1

[11] = system: NCI-H1666
Summary of the method: as §1

[12] = system: BEN
Summary of the method: as §1

[13] = system: NCI-H650
Summary of the method: as §1

[14] = system: LK-2
Summary of the method: as §1

[15] = system: LCLC-97TM1
Summary of the method: as §1

[16] = system: HCC-78
Summary of the method: as §1

[17] = system: SK-MES-1
Summary of the method: as §1

[18] = system: NCI-H1355
Summary of the method: as §1

[19] = system: LC-2-ad
Summary of the method: as §1

[20] = system: ChaGo-K-1
Summary of the method: as §1

[21] = system: NCI-H1975
Summary of the method: as §1

[22] = system: LXF-289
Summary of the method: as §1

SMILES: O=c1cc(N2CCOCC2)oc2c(-c3cccc4c3sc3ccccc34)cccc12 + COc1cc2c(Oc3ccc(NC(=O)C4(C(=O)Nc5ccc(F)cc5)CC4)cc3F)ccnc2cc1OCCCN1CCOCC1 [Foretinib] (partner 0.25 µM)
- relative viability ([1]; first compound 0.01 µM): 0.775
- relative viability ([1]; first compound 0.03162 µM): 0.766
- relative viability ([1]; first compound 0.1 µM): 0.958
- relative viability ([1]; first compound 0.3162 µM): 0.796
- relative viability ([1]; first compound 1 µM): 0.624
- relative viability ([2]; first compound 0.01 µM): 0.987
- relative viability ([2]; first compound 0.03162 µM): 1.02
- relative viability ([2]; first compound 0.1 µM): 1.12
- relative viability ([2]; first compound 0.3162 µM): 0.958
- relative viability ([2]; first compound 1 µM): 0.997
- relative viability ([3]; first compound 0.01 µM): 0.996
- relative viability ([3]; first compound 0.03162 µM): 1.05
- relative viability ([3]; first compound 0.1 µM): 1.03
- relative viability ([3]; first compound 0.3162 µM): 0.947
- relative viability ([3]; first compound 1 µM): 1.03
- relative viability ([4]; first compound 0.01 µM): 0.876
- relative viability ([4]; first compound 0.03162 µM): 0.928
- relative viability ([4]; first compound 0.1 µM): 0.829
- relative viability ([4]; first compound 0.3162 µM): 0.89
- relative viability ([4]; first compound 1 µM): 0.821
- relative viability ([5]; first compound 0.01 µM): 0.647
- relative viability ([5]; first compound 0.03162 µM): 0.7
- relative viability ([5]; first compound 0.1 µM): 0.667
- relative viability ([5]; first compound 0.3162 µM): 0.741
- relative viability ([5]; first compound 1 µM): 0.774
- relative viability ([6]; first compound 0.01 µM): 1.09
- relative viability ([6]; first compound 0.03162 µM): 1.4
- relative viability ([6]; first compound 0.1 µM): 1.28
- relative viability ([6]; first compound 0.3162 µM): 1.24
- relative viability ([6]; first compound 1 µM): 1.2
- relative viability ([7]; first compound 0.01 µM): 1.01
- relative viability ([7]; first compound 0.03162 µM): 1.08
- relative viability ([7]; first compound 0.1 µM): 1.05
- relative viability ([7]; first compound 0.3162 µM): 1.01
- relative viability ([7]; first compound 1 µM): 1.06
- relative viability ([8]; first compound 0.01 µM): 1.04
- relative viability ([8]; first compound 0.03162 µM): 1.11
- relative viability ([8]; first compound 0.1 µM): 0.997
- relative viability ([8]; first compound 0.3162 µM): 1.04
- relative viability ([8]; first compound 1 µM): 1.07
- relative viability ([9]; first compound 0.01 µM): 0.838
- relative viability ([9]; first compound 0.03162 µM): 0.946
- relative viability ([9]; first compound 0.1 µM): 0.821
- relative viability ([9]; first compound 0.3162 µM): 0.96
- relative viability ([9]; first compound 1 µM): 0.918
- relative viability ([10]; first compound 0.01 µM): 0.937
- relative viability ([10]; first compound 0.03162 µM): 0.739
- relative viability ([10]; first compound 0.1 µM): 0.908
- relative viability ([10]; first compound 0.3162 µM): 0.806
- relative viability ([10]; first compound 1 µM): 0.777
- relative viability ([11]; first compound 0.01 µM): 0.907
- relative viability ([11]; first compound 0.03162 µM): 0.917
- relative viability ([11]; first compound 0.1 µM): 0.983
- relative viability ([11]; first compound 0.3162 µM): 0.883
- relative viability ([11]; first compound 1 µM): 0.913
- relative viability ([12]; first compound 0.01 µM): 0.548
- relative viability ([12]; first compound 0.03162 µM): 0.861
- relative viability ([12]; first compound 0.1 µM): 0.57
- relative viability ([12]; first compound 0.3162 µM): 0.701
- relative viability ([12]; first compound 1 µM): 0.578
- relative viability ([13]; first compound 0.03162 µM): 1.07
- relative viability ([13]; first compound 0.1 µM): 0.918
- relative viability ([13]; first compound 0.3162 µM): 1.01
- relative viability ([13]; first compound 1 µM): 0.992
- relative viability ([14]; first compound 0.01 µM): 1.17
- relative viability ([14]; first compound 0.03162 µM): 1.16
- relative viability ([14]; first compound 0.1 µM): 1.53
- relative viability ([14]; first compound 0.3162 µM): 0.958
- relative viability ([14]; first compound 1 µM): 0.951
- relative viability ([15]; first compound 0.01 µM): 0.905
- relative viability ([15]; first compound 0.03162 µM): 0.926
- relative viability ([15]; first compound 0.1 µM): 0.937
- relative viability ([15]; first compound 0.3162 µM): 0.897
- relative viability ([15]; first compound 1 µM): 0.92
- relative viability ([16]; first compound 0.01 µM): 0.492
- relative viability ([16]; first compound 0.03162 µM): 0.457
- relative viability ([16]; first compound 0.1 µM): 0.544
- relative viability ([16]; first compound 0.3162 µM): 0.581
- relative viability ([16]; first compound 1 µM): 0.533
- relative viability ([17]; first compound 0.01 µM): 1.13
- relative viability ([17]; first compound 0.03162 µM): 0.771
- relative viability ([17]; first compound 0.1 µM): 0.847
- relative viability ([17]; first compound 0.3162 µM): 0.968
- relative viability ([17]; first compound 1 µM): 0.91
- relative viability ([18]; first compound 0.01 µM): 0.962
- relative viability ([18]; first compound 0.03162 µM): 1.01
- relative viability ([18]; first compound 0.1 µM): 0.952
- relative viability ([18]; first compound 0.3162 µM): 0.986
- relative viability ([18]; first compound 1 µM): 0.917
- relative viability ([19]; first compound 0.01 µM): 0.89
- relative viability ([19]; first compound 0.03162 µM): 1.03
- relative viability ([19]; first compound 0.1 µM): 0.921
- relative viability ([19]; first compound 0.3162 µM): 0.877
- relative viability ([19]; first compound 1 µM): 0.795
- relative viability ([20]; first compound 0.01 µM): 0.901
- relative viability ([20]; first compound 0.03162 µM): 1.01
- relative viability ([20]; first compound 0.1 µM): 0.948
- relative viability ([20]; first compound 0.3162 µM): 0.869
- relative viability ([20]; first compound 1 µM): 0.96
- relative viability ([21]; first compound 0.01 µM): 0.842
- relative viability ([21]; first compound 0.03162 µM): 1.1
- relative viability ([21]; first compound 0.1 µM): 1.1
- relative viability ([21]; first compound 0.3162 µM): 0.927
- relative viability ([21]; first compound 1 µM): 0.936
- relative viability ([22]; first compound 0.01 µM): 0.969
- relative viability ([22]; first compound 0.03162 µM): 0.984
- relative viability ([22]; first compound 0.1 µM): 1
- relative viability ([22]; first compound 0.3162 µM): 0.97
- relative viability ([22]; first compound 1 µM): 0.965
